In US20260191766A1, “USE OF CONDITIONED MEDIUM DERIVED FROM CULTIVATION OF MESENCHYMAL STEM CELLS OF THE UMBILICAL CORD FOR INDUCING, STIMULATING AND PROMOTING HAIR GROWTH AND REGENERATION” (CELLRESEARCH CORPORATION PTE. LTD., priority 2022, published 2026):

Experiments:
[1] = system: COVID-19-induced scalp alopecia (telogen effluvium); experiment: Example 8: case study, COVID-19-induced telogen effluvium; type: in vivo, human; details: same patient; minoxidil and LED light treatment (Hairmax)
Protocol: COVID-19-induced scalp Alopecia can induce telogen effluvium (TE) which refers to diffuse scalp alopecia. A patient with severe chronic TE with no spontaneous recovery after 6 months of hair loss and no response to conventional treatment of minoxidil and LED light treatment (Hairmax) was treated with a composition comprising conditioned medium derived from cultivation of mesenchymal stem cells of the umbilical cord (CALECIM® Advanced Hair System).
The scalp of the patient was progressively treated with rubbing with an alcohol swab, then 1 ml of a composition comprising conditioned medium derived from cultivation of mesenchymal stem cells of the umbilical cord was applied and massaged in till dry. The patient was advised to wait until evening to wash their hair. Five treatments of conditioned medium derived from cultivation of mesenchymal stem cells of the umbilical cord spaced a month apart were administered.

[2] = system: human follicle dermal papilla cells (HFDPC); experiment: growth promotion on cultured human follicle dermal papilla cells (WST-8); type: cell-based
Excerpt: Hair growth is controlled by a unique repetitive cycle comprised of anagen, catagen and telogen phases. Dermal papilla cells (DPCs), a group of specialized fibroblasts within the hair follicle bulb, have an essential function in the control of hair growth not only in the normal hair cycle but also in the pathogenesis of certain conditions, for example in androgenetic alopecia. Therefore, factors affecting the functions of DPCs in hair loss are of great importance from the therapeutic viewpoint. […] HFDPCs are either treated with different concentrations of Minodixil (0.0125-200 μg/mL; see Table 3, left column, serving as the reference) or conditioned medium of the invention at different dilutions (PC, dilution range from 10-1280 times; see third column of Table 3). The negative control (NC) refers to HFDPCs incubated with basal medium only. All data are shown as the mean±standard deviation (SD). For comparison of different treatments between 2 groups, the Student's t test was used. p<0.05 was considered significant, p<0.01 would normally be considered highly significant, and p<0.001 extremely significant. After calculation, p is 0.03.

elastin mRNA in HDFs = details: 24 hours, 1 ng/ml; cited from earlier work

Molecule | response to conventional treatment before the study treatment [1] | cell count of HFDPC (% of control) ([2]; Minoxidil 0.0125 ug/mL) | cell count of HFDPC (% of control) ([2]; Minoxidil 0.025 ug/mL) | cell count of HFDPC (% of control) ([2]; Minoxidil 0.05 ug/mL) | cell count of HFDPC (% of control) ([2]; Minoxidil 0.1 ug/mL) | cell count of HFDPC (% of control) ([2]; Minoxidil 0.2 ug/mL) | cell count of HFDPC (% of control) ([2]; Minoxidil 2 ug/mL) | cell count of HFDPC (% of control) ([2]; Minoxidil 20 ug/mL) | cell count of HFDPC (% of control) ([2]; Minoxidil 200 ug/mL) | more cells compared to negative control ([2]; diluted 320 times) | maximum increase of elastin mRNA steady-state levels (elastin mRNA in HDFs) [fold]
Nc1cc(N2CCCCC2)nc(N)[n+]1[O-] [Minoxidil] | no response | 94 ± 0.6 % of control | 92.2 ± 1.4 % of control | 120.8 ± 4.8 % of control | 120.8 ± 8.8 % of control | 123.2 ± 8.4 % of control | 124.5 ± 10.2 % of control | 98.5 ± 7.7 % of control | 43 ± 2.6 % of control | around 20% | 
TGF-β1: transforming growth factor, literature data |  |  |  |  |  |  |  |  |  |  | 30
TGF-β2: transforming growth factor, literature data (protein, UniProt P61812 303-414, looked up) Transforming growth factor …: ALDAAYCFRNVQDNCCLRPLYIDFKRDLGWKWIHEPKGYNANFCAGACPYLWSSDTQHSRVLSLYNTINPEASASPCCVSQDLEPLTILYYIGKTPKIEQLSNMIVKSCKCS |  |  |  |  |  |  |  |  |  |  | 30
